Reference: patent US5869447A, “Cyclohexapeptides and their mixtures, a process for preparing them, and their use” (Hoechst Aktiengesellschaft, priority 1994, dated 1999)
≈ marks a conversion by molar mass, not a printed value. Square brackets hold non-standard residues; d marks the D form. Peptide text beside a SMILES is read from it. Hyp = O=C(O)[C@@H]1C[C@@H](O)CN1

System: IL-4 receptor (receptor/Fc fusion protein)
Assay: Specific inhibition of IL-4 binding in cell-free binding assays (IC50 table)
Details: cell-free IL-4 binding assay, biotinylated ligand 100 ng/ml, PBSA with 5% DMSO; table does not say whether huIL-4 or muIL-4 test
Description: Specific inhibition of IL-4 Binding in Cell-free Binding Assays.
EP 488 170 A1, which is incorporated herein by reference, discloses cell-free binding tests. For carrying them out, recombinant chimeric proteins were used which comprise the extracellular region of what are normally membrane-located receptors on to whose carboxyl terminus has been fused the Fc region of a heavy immunoglobulin chain composed of hinge, CH2 and CH3 domains. These so-called receptor/Fc fusion proteins can be bound, while retaining the specific receptor binding activity, to solid phases which have previously been coated, for example, with monoclonal antibodies directed against the Fc moiety. For this example, Nunc® type B ELISA plates were used as the solid phase. Receptor/Fc fusion proteins, dissolved in PBS containing 10 mg/ml BSA (PBSA), were bonded to these pre-treated plates (huIL-4R/Fc: 500 ng/ml; muIL-4R/Fc: 250 ng/ml; huIL-lR/Fc: 125 ng/ml; at room temperature for 1 h). […] The plates were incubated at room temperature for 1 h in PBSA containing 5% DMSO. After having been washed, the plates were incubated at room temperature for 20 min with streptavidin/peroxidase (Amersham, 1:2000 in PBSA). The bound peroxidase was detected after the plates had been washed repeatedly in a solution of tetramethylbenzidine substrate (Behringwerke). The extinction at 450 nm, which directly reflects the quantity of the biotinylated ligand bound to the receptor, was measured after the plates had been incubated for 30 min. For FIGS. 1-3, the measured extinction signal was plotted against the concentration of the competing agent with the 100% value being the extinction which was measured in the absence of any competing agent.

IC50 [µg/mL]	Structure (SMILES)
8.3 (≈ 12.4 µM)	CC(C)[C@@H]1NC(=O)[C@H](Cc2ccc(O)cc2)NC(=O)[C@@H](C)NC(=O)[C@H](C(C)C)NC(=O)[C@H](Cc2ccc(O)cc2)NC(=O)[C@H](C)NC1=O [cyclo(Tyr--Val--Ala--Tyr--Val--(D)--Ala), cyclo(Tyr-Val-Ala-Tyr-Val-(D)-Ala)] (cyclo(AYV[dA]YV))
96.6 (≈ 128 µM)	CC(C)[C@@H]1NC(=O)[C@H](Cc2ccc(O)cc2)NC(=O)[C@@H](C)NC(=O)[C@H](C(C)C)NC(=O)[C@H](Cc2ccc(O)cc2)NC(=O)[C@H](CCCNC(=N)N)NC1=O [cyclo(Tyr--Val--Arg--Tyr--Val--(D)--Ala), cyclo(Tyr-Val-Arg-Tyr-Val-(D)-Ala)] (cyclo(RYV[dA]YV))
17.4 (≈ 24.5 µM)	CC(C)[C@@H]1NC(=O)[C@H](Cc2ccc(O)cc2)NC(=O)[C@@H]2C[C@@H](O)CN2C(=O)[C@H](C(C)C)NC(=O)[C@H](Cc2ccc(O)cc2)NC(=O)[C@@H](C)NC1=O [cyclo(Tyr--Val--Hyp--Tyr--Val--(D)--Ala), cyclo(Tyr-Val-Hyp-Tyr-Val-(D)-Ala)] (cyclo([Hyp]YV[dA]YV))
62.5 (≈ 88.2 µM)	CC[C@H](C)[C@@H]1NC(=O)[C@H](C(C)C)NC(=O)[C@H](Cc2ccc(O)cc2)NC(=O)[C@@H](C)NC(=O)[C@H](C(C)C)NC(=O)[C@H](Cc2ccc(O)cc2)NC1=O [cyclo(Tyr--Val--Ile--Tyr--Val--(D)--Ala), cyclo(Tyr-Val-Ile-Tyr-Val-(D)-Ala)] (cyclo(IYV[dA]YV))
41.3 (≈ 58.3 µM)	CC(C)C[C@@H]1NC(=O)[C@H](C(C)C)NC(=O)[C@H](Cc2ccc(O)cc2)NC(=O)[C@@H](C)NC(=O)[C@H](C(C)C)NC(=O)[C@H](Cc2ccc(O)cc2)NC1=O [cyclo(Tyr--Val--Leu--Tyr--Val--(D)--Ala), cyclo(Tyr-Val-Leu-Tyr-Val-(D)-Ala)] (cyclo(LYV[dA]YV))
92.0 (≈ 132 µM)	CC(C)[C@@H]1NC(=O)[C@H](Cc2ccc(O)cc2)NC(=O)[C@@H](C)NC(=O)[C@H](C(C)C)NC(=O)[C@H](Cc2ccc(O)cc2)NC(=O)[C@H]([C@@H](C)O)NC1=O [cyclo(Tyr--Val--Thr--Tyr--Val--(D)--Ala), cyclo(Tyr-Val-Thr-Tyr-Val-(D)-Ala)] (cyclo(TYV[dA]YV))
16.7 (≈ 25 µM)	CC(C)[C@@H]1NC(=O)[C@H](C)NC(=O)[C@H](Cc2ccc(O)cc2)NC(=O)[C@H](C(C)C)NC(=O)[C@@H](C)NC(=O)[C@H](Cc2ccc(O)cc2)NC1=O [cyclo(Val--Tyr--Ala--Val--Tyr--(D)--Ala), cyclo(Val-Tyr-Ala-Val-Tyr-(D)-Ala)] (cyclo(AVY[dA]VY))
